Experiments:
Type in all cases: in vivo
[1] = system: barnyardgrass (Echinochloa crus-galli); assay: Test B flooded paddy test plant response
Outline: (§1)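 Compounds were added directly to paddy water over 2-leaf-stage plants in pots flooded 3 cm above soil, water depth maintained. Visual injury scored against controls after 13 to 15 days in greenhouse, 0 (none) to 100 (complete control); dash indicates no result.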

[2] = system: ducksalad (Heteranthera limosa); assay: Test B flooded paddy test plant response
Outline: as §1

[3] = system: umbrella sedge (Cyperus difformis); assay: Test B flooded paddy test plant response
Outline: as §1

[4] = system: rice (Oryza sativa); assay: Test B flooded paddy test plant response
Outline: as §1

[5] = system: downy bromegrass (Bromus tectorum); assay: Test B pre-/postemergence plant response
Outline: (§2)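 Seeds were sown and sprayed preemergence, while plants at 2 to 18 cm (1- to 4-leaf stage) got postemergence sprays. Compounds were formulated in a non-phytotoxic solvent mixture with surfactant. After 13 to 15 days in a greenhouse, injury was rated visually against untreated controls, 0 (no effect) to 100 (complete control).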

[6] = system: wild oat (Avena fatua); assay: Test B pre-/postemergence plant response
Outline: as §2

[7] = system: cocklebur (Xanthium strumarium); assay: Test B pre-/postemergence plant response
Outline: as §2

[8] = system: large crabgrass (Digitaria sanguinalis); assay: Test B pre-/postemergence plant response
Outline: as §2

[9] = system: woolly cupgrass (Eriochloa villosa); assay: Test B pre-/postemergence plant response
Outline: as §2

[10] = system: wheat (Triticum aestivum); assay: Test B pre-/postemergence plant response
Outline: as §2

[11] = system: soybean (Glycine max); assay: Test B pre-/postemergence plant response
Outline: as §2

[12] = system: velvetleaf (Abutilon theophrasti); assay: Test B pre-/postemergence plant response
Outline: as §2

[13] = system: bermudagrass (Cynodon dactylon); assay: Test B pre-/postemergence plant response
Outline: as §2

[14] = system: catchweed bedstraw (Galium aparine); assay: Test B pre-/postemergence plant response; details: Preemergence, scale 0 to 100
Outline: as §2

[15] = Flood (flooded paddy test), 62 g ai/ha, scale 0 to 100, 0 no effect, 100 complete control
[16] = Flood (flooded paddy test), 125 g ai/ha, scale 0 to 100, 0 no effect, 100 complete control
[17] = Flood (flooded paddy test), 250 g ai/ha, scale 0 to 100, 0 no effect, 100 complete control
[18] = Flood, 31 g ai/ha, scale 0 to 100
[19] = Postemergence, 31 g ai/ha, scale 0 to 100, 0 no effect, 100 complete control
[20] = Postemergence, 62 g ai/ha, scale 0 to 100
[21] = Postemergence, 125 g ai/ha, scale 0 to 100
[22] = Preemergence, 31 g ai/ha, 0 to 100 scale, 0 no effect, 100 complete control
[23] = Preemergence, 62 g ai/ha, scale 0 to 100
[24] = Preemergence, 125 g ai/ha, scale 0 to 100
[25] = Postemergence, 250 g ai/ha, scale 0 to 100
[26] = Preemergence, 250 g ai/ha, scale 0 to 100

Cc1cc(-c2ccc(Br)cc2)nn1-c1c(OC(=O)C2CC2)cnn(C)c1=O [Compound 5]
70: Plant response rating, Barnyardgrass [1, 16] | Plant response rating, Sedge, Umbrella [3, 15] | Plant response rating, Sedge, Umbrella [3, 18] | Plant response rating, Oat, Wild [6, 23] | Plant response rating, Wheat [10, 23] | Plant response rating, Soybean [11, 25]
30: Plant response rating, Ducksalad [2, 18] | Plant response rating, Oat, Wild [6, 22] | Plant response rating, Wheat [10, 22]
85: Plant response rating, Bromegrass, Downy [5, 23]
98: Plant response rating, Bromegrass, Downy [5, 24] | Plant response rating, Wheat [10, 26] | Plant response rating, Bermudagrass [13, 22]
65: Plant response rating, Ducksalad [2, 17] | Plant response rating, Soybean [11, 21]
75: Plant response rating, Rice [4, 16]
90: Plant response rating, Barnyardgrass [1, 17] | Plant response rating, Cupgrass, Woolly [9, 23] | Plant response rating, Wheat [10, 19] | Plant response rating, Galium ([14]; 250 g ai/ha)
10: Plant response rating, Velvetleaf [12, 25]
20: Plant response rating, Barnyardgrass [1, 18] | Plant response rating, Cocklebur [7, 25]
15: Plant response rating, Rice [4, 18]
100: Plant response rating, Bromegrass, Downy ([5]; Preemergence, 250 g ai/ha, scale 0 to 100 (0 no effect, 100 complete control)) | Plant response rating, Oat, Wild [6, 20] | Plant response rating, Oat, Wild [6, 21] | Plant response rating, Oat, Wild [6, 25] | Plant response rating, Crabgrass, Large [8, 19] | Plant response rating, Crabgrass, Large [8, 20] | Plant response rating, Crabgrass, Large [8, 21] | Plant response rating, Crabgrass, Large [8, 25] | Plant response rating, Crabgrass, Large [8, 22] | Plant response rating, Crabgrass, Large [8, 23] | Plant response rating, Crabgrass, Large [8, 24] | Plant response rating, Crabgrass, Large [8, 26] | Plant response rating, Cupgrass, Woolly [9, 20] | Plant response rating, Cupgrass, Woolly [9, 21] | Plant response rating, Cupgrass, Woolly [9, 25] | Plant response rating, Cupgrass, Woolly [9, 24] | Plant response rating, Cupgrass, Woolly [9, 26] | Plant response rating, Wheat [10, 20] | Plant response rating, Wheat [10, 21] | Plant response rating, Wheat [10, 25] | Bermudagrass plant response rating ([13]; 250 g ai/ha, preemergence, 0-100 scale) | Plant response rating, Bermudagrass [13, 19] | Plant response rating, Bermudagrass [13, 20] | Plant response rating, Bermudagrass [13, 21] | Plant response rating, Bermudagrass [13, 25] | Plant response rating, Bermudagrass [13, 23] | Plant response rating, Bermudagrass [13, 24]
50: Plant response rating, Barnyardgrass [1, 15] | Plant response rating, Ducksalad [2, 16] | Plant response rating, Bromegrass, Downy [5, 20] | Plant response rating, Bromegrass, Downy [5, 21] | Plant response rating, Cupgrass, Woolly [9, 22] | Plant response rating, Soybean [11, 20]
0: Plant response rating, Cocklebur [7, 19] | Plant response rating, Cocklebur [7, 20] | Plant response rating, Cocklebur [7, 21] | Plant response rating, Cocklebur [7, 22] | Plant response rating, Cocklebur [7, 23] | Plant response rating, Cocklebur [7, 24] | Plant response rating, Soybean [11, 19] | Plant response rating, Soybean [11, 22] | Plant response rating, Soybean [11, 23] | Plant response rating, Soybean [11, 24] | Plant response rating, Velvetleaf [12, 19] | Plant response rating, Velvetleaf [12, 20] | Plant response rating, Velvetleaf [12, 21] | Plant response rating, Velvetleaf [12, 22] | Plant response rating, Velvetleaf [12, 23] | Plant response rating, Velvetleaf [12, 24] | Plant response rating, Velvetleaf [12, 26]
40: Plant response rating, Ducksalad [2, 15] | Plant response rating, Bromegrass, Downy [5, 22]
5: Plant response rating, Bromegrass, Downy [5, 19]
60: Plant response rating, Rice [4, 15]
80: Plant response rating, Sedge, Umbrella [3, 16] | Plant response rating, Sedge, Umbrella [3, 17] | Plant response rating, Rice [4, 17] | Plant response rating, Oat, Wild [6, 24] | Plant response rating, Galium ([14]; 125 g ai/ha)
95: Plant response rating, Oat, Wild [6, 19] | Plant response rating, Oat, Wild [6, 26] | Plant response rating, Cupgrass, Woolly [9, 19] | Plant response rating, Wheat [10, 24]
